# Patent US20260034135A1, “USE OF N6-BENZYLAMINOPURINE AS AN APPETITE SUPPRESSANT” (THE GOVERNING COUNCIL OF THE UNIVERSITY OF TORONTO, priority 2022, published 2026)
# Assays:
# [1] = Peripheral fat mass by Bruker scan; type: in vivo, CD-1 mice; conditions: male CD-1, HFD, BAP emulsion 11 days, Bruker scan before and after
# Text: (§1) Male and female CD-1 mice were received at age 6-7 weeks and were acclimated on a chow diet for one week prior to experimentation. After acclimation to the facility, mice were switched to a 60% HFD. The male and female mice received HFD for 4 (male) and 5 or 16 (female) weeks prior to BAP exposure. The mice were then acclimated to the emulsion feeding protocol for 4 days prior to the start of BAP exposure using the method described in Kuster et al. (12). Two days prior to the start of the exposure period, a cohort of male mice underwent acute general anesthetic with isoflurane for baseline Bruker scanning to quantify peripheral fat mass. The mice were then weight-matched and randomly assigned to either the control or BAP group. During the exposure period, mice were restrained via scruffing (held at back of neck) and fed 200 μL of an emulsion containing 0.5% carboxymethyl cellulose and 50% honey with or without BAP at 2 hr prior to lights off at the facility daily.
# The BAP concentrations were calibrated weekly to achieve a dosage of 300 mg/kg/day. All mice were kept on the 60% HFD throughout the exposure period. […] Hypothalamic collected from the mice were then used to isolate RNA and quantify gene expression using quantitative reverse transcription polymerase chain reaction (qRT-PCR).
# [2] = Intraperitoneal insulin tolerance test (ITT); type: in vivo, CD-1 mice
# Protocol: All protocols using mice were approved by the University Animal Care Committee of the University of Toronto and were performed in accordance with the Canadian Council on Animal Care. Animal experiments were performed in three separate animal facilities: Medical Sciences Building (MSB), Centre for Cellular and Biomolecular Research (CCBR) and the Biological Sciences Facility (BSF) due to ongoing construction and housing changes. Facilities and dates are indicated in each experimental cohort. N6-benzylaminopurine (BAP; also called N6-benzyladenine) was obtained from Sigma (B3408, cell culture grade in powder form; CAS number 1214-39-7). Male and female CD-1 mice aged 6-7 weeks were acquired from Charles Rivers and acclimated on a chow diet for one week prior to experimentation. Mice were then weight-matched and placed on either a 60% high fat diet (HFD) or sucrose-matched control diet for 4 weeks (from Research Diets: 60% HFD D12492 and the sucrose-matched control diet […]). After 3 weeks on the diet, mice were acclimated for one week to the drinking apparatus, a 50 mL canonical tube with a drinking tube. After 4 weeks on the diet, the mice were again weight-matched and randomly assigned to either the control or BAP group. […] The average dosages achieved using this method are as follows: male HFD (200 mg/kg/day), male control (157 mg/kg/day), female HFD (189 mg/kg/day), and female control (129.9 mg/kg/day). The mice were exposed continuously to the solutions for a total of 33 days. One week prior to the end of the experiment (day 28), the mice were fasted for 4 hr and underwent intraperitoneal insulin tolerance testing (ITT). After 33 days, the mice were sacrificed, and their tissues were collected. RNA was isolated from the collected hypothalamic and used to quantify gene expression via qRT-PCR. Male mice were placed on a 60% HFD for 8 weeks prior to the ITT and GTT analyses. At 4 weeks, treatment with BAP or vehicle was introduced on a daily basis in the honey emulsion as described above. The mice were then briefly fasted to determine the response to insulin or glucose. For the intraperitoneal insulin tolerance test (ITT), mice were transferred to clean cages without food and fasted for 4 hours. The mice were weighed after 3 hours of fasting and these weights were used to determine optimal insulin dosage (1 IU/kg). The appropriate amount of insulin was aliquoted. After 4 hours of fasting, blood glucose was measured via tail vein using a standard glucometer. This value was recorded as the 0-minute timepoint. The mice were intraperitoneal injected with their aliquoted amount of insulin and returned to their cage. Blood glucose was measured via tail vein 15, 30, and 60 minutes after insulin injection. Mice were provided with 20% glucose solution and removed from ITT if hypoglycemia was observed. Upon completion of ITT, mice were returned to cages with food and water and monitored for adverse effects.
# [3] = BAP in a honey emulsion fed to CD-1 mice: body weight, food and water intake; type: in vivo
# Text: as §1
# […] All mice were kept on the 60% HFD throughout the exposure period. […] On day 12, the one cohort of male mice underwent general anesthetic for the purpose of post-experiment Bruker scanning. The male mice were then fed their assigned emulsion 2 hr prior to sacrificing and tissue collection. […] Hypothalamic collected from the mice were then used to isolate RNA and quantify gene expression using quantitative reverse transcription polymerase chain reaction (qRT-PCR).
# [4] = male CD-1, 60% HFD, 300 mg/kg/day BAP emulsion, 11 days, cohort CCBR
# [5] = male CD-1, 60% HFD, 300 mg/kg/day BAP emulsion, 14 days, cohort BSF
# [6] = male CD-1, 60% HFD, 300 mg/kg/day BAP emulsion, 28 days, cohort BSF
compound,measurement,setting,value
"c1ccc(CNc2ncnc3nc[nH]c23)cc1 [BAP, N6-benzylaminopurine]",net peripheral fat,[1],do not observe any significant changes
same,peripheral fat mass percentage,[1],do not observe any significant changes
same,fasting blood glucose with BAP (ITT),"[2]; female CD-1, 60% HFD, BAP emulsion, one week prior to sacrifice, 4 hr fast (data not shown)",no significant differences
same,fasting blood glucose with BAP,"[2]; female CD-1, BAP in drinking water, ITT one week prior to sacrifice, 4 hr fast",no significant differences
same,insulin sensitivity (ip insulin tolerance test),"[2]; female CD-1, HFD, BAP in drinking water, after 28 days of exposure",do not exhibit enhanced insulin sensitivity
same,fasting blood glucose vs HFD without BAP,"[2]; male CD-1, 60% HFD, BAP in drinking water, ITT at day 28, 4 hr fast",significantly lower fasting blood glucose levels
same,insulin sensitivity (blood glucose after ip insulin tolerance test),"[2]; male CD-1, 60% HFD, after 28 days of daily oral BAP exposure",improved glucose tolerance
same,body weight gain on HFD,"[3]; female CD-1, 16 weeks 60% HFD then 300 mg/kg/day BAP emulsion 36 days, cohort BSF",did not gain weight
same,food intake vs control,"[3]; female CD-1, 60% HFD, 300 mg/kg/day BAP emulsion 36 days, cohort BSF",did not eat significantly less HFD
same,body weight change vs control,"[3]; male CD-1, 60% HFD, 75 mg/kg/day BAP emulsion, 14 days",no change
same,body weight gain on HFD,"[3]; male CD-1, 60% HFD, 150 mg/kg/day BAP emulsion, 14 days, cohort BSF",did not gain weight
same,body weight loss,[3]; [4],5%
same,reduction in HFD food intake vs control group over the exposure period,[3]; [4],22%
same,body weight loss,[3]; [5],1.3%
same,daily average food intake vs control,[3]; [5],did not eat significantly less HFD
same,body weight loss,"[3]; male CD-1, 60% HFD, 300 mg/kg/day BAP emulsion, 14 days, dose study, cohort BSF",1.1%
same,food intake,"[3]; male CD-1, 60% HFD, 300 mg/kg/day BAP emulsion, 14 days, dose study, significant by unpaired t-test at 8 days onward",trend towards a decrease in food intake that did not reach significance
same,body weight loss,[3]; [6],5%
same,reduction in daily average food intake vs control,[3]; [6],13%
same,cumulative daily food intake,"[3]; male CD-1, 60% HFD, 75, 150, 300 mg/kg BAP emulsion, 14 days",do not have significant changes in food intake
